Literature values as cited in patent US20250366801A1, “ESTIMATION OF CEREBROVASCULAR RESERVE” (MedTrace Pharma A/S, priority 2024, published 2025).

Settings: single standard dose of 1000 mg intravenously; patients with atherosclerotic cerebrovascular disease (Vagal 2009)

CC(=O)Nc1nnc(S(N)(=O)=O)s1 [Acetazolamide, acetazolamide]
time of peak cerebral blood flow augmentation after the intravenous bolus injection: 10 to 15 min
